According to patent EP0326331B1, “Substituted quinolines and cinnolines” (Dow AgroSciences LLC, priority 1988, dated 1989):

Assays:
Format in all cases: in vivo
[1] = system: corn rootworm; assay: Mite/insect screen, CRW; details: percent mortality; for mortality at 12 ppm / mortality at 24 ppm: read-out: CRW RESULTS %; for mortality at 24 ppm: CRW RATE 24.00 PPM
Outline: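 Each compound, taken up in an emulsifier-containing acetone/alcohol mixture and diluted in water to the stated concentrations, was assessed for percent kill following standard exposure times.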

[2] = system: Venturia inaequalis (apple scab); assay: Test 1 greenhouse foliar spray screen, apple scab on apple seedling; details: disease control rating, foliar spray on apple seedling, 400 ppm (+++ at 100 ppm)
[3] = system: Twospotted spider mites (Tetranychus urticae Koch); assay: Mite/insect screen, SM; details: percent mortality, SAW; for mortality at 200 ppm / mortality at 400 ppm: Tetranychus urticae, read-out: SM RESULTS %; for mortality at 400 ppm: SM & MA RATE 400 PPM
Outline: (§1)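 Activity is expressed as percent mortality at the indicated spray concentrations. Plants are sprayed to runoff on upper and lower leaf surfaces with aqueous dilutions of an acetone/alcohol emulsifiable formulation, then dried for one hour.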

[4] = system: Puccinia recondita tritici (leaf rust); assay: Test 1 greenhouse foliar spray screen, leaf rust on wheat; details: disease control rating, foliar spray on wheat, 400 ppm (+++ at 100 ppm)
[5] = system: Pseudoperonospora cubensis (downy mildew); assay: Test 1 greenhouse foliar spray screen, downy mildew on squash; details: disease control rating, foliar spray on squash, 400 ppm (+++ at 100 ppm)
[6] = system: Septoria tritici (leaf blotch); assay: Test 1 greenhouse foliar spray screen, leaf blotch on wheat; details: disease control rating, foliar spray on wheat, 400 ppm (+++ at 100 ppm)
[7] = system: Erysiphe graminis tritici (powdery mildew); assay: Test 1 greenhouse foliar spray screen, powdery mildew on wheat; details: disease control rating, foliar spray on wheat, 400 ppm (+++ at 100 ppm)
[8] = system: Cercospora beticola (leaf spot); assay: Test 1 greenhouse foliar spray screen, leaf spot on sugar beet; details: disease control rating, foliar spray on sugar beet, 400 ppm (+++ at 100 ppm)
[9] = system: southern armyworm (Spodopetra eridania Cramer); assay: Mite/insect screen, SAW; details: percent mortality, SAW; for mortality at 200 ppm / mortality at 400 ppm: Spodoptera eridania, read-out: SAW RESULTS %; for mortality at 400 ppm: SM & MA RATE 400 PPM
Outline: as §1

[10] = system: Pyricularia oryzae (rice blast); assay: whole plant or invertebrate; details: disease control rating, foliar spray on rice, 400 ppm (+++ at 100 ppm)
[11] = system: Botrytis cinerea (gray mold); assay: Test 1 greenhouse foliar spray screen, gray mold on grape berries; details: disease control rating, spray on grape berries, 400 ppm (+++ at 100 ppm)
[12] = system: melon aphids (Aphis gossypii Glover); assay: Mite/insect screen, MA; details: percent mortality, SAW; for mortality at 200 ppm / mortality at 400 ppm: Aphis gossypii, read-out: MA RESULTS %; for mortality at 400 ppm: SM & MA RATE 400 PPM
Outline: as §1

Row | Compound | CRW RESULTS % ([1]; CRW RATE 12.00 PPM) [%] | mortality at 12 ppm ([1]; CRW RATE 12.00 PPM) [%] | APPL SCAB [2] | mortality at 200 ppm ([3]; SM & MA RATE 200 PPM) [%] | SM RESULTS % ([3]; SM & MA RATE 200 PPM) [%] | LEAF RUST [4] | DOWN MDEW [5] | LEAF BLOT [6] | POWD MDEW [7] | LEAF SPOT [8] | mortality at 200 ppm ([9]; SM & MA RATE 200 PPM) [%] | SAW RESULTS % ([9]; SM & MA RATE 200 PPM) [%] | RICE BLAST [10] | GRAY MOLD [11] | mortality at 200 ppm ([12]; SM & MA RATE 200 PPM) [%] | MA RESULTS % ([12]; SM & MA RATE 200 PPM) [%] | mortality at 24 ppm [1] [%] | mortality at 400 ppm [3] [%] | mortality at 400 ppm [9] [%] | mortality at 400 ppm [12] [%]
1 | O=[N+]([O-])c1ccc(CCNc2ccnc3c(F)cccc23)cc1 [Example 117, 8-fluoro-N-[2-(4-nitrophenyl)ethyl]-4-quinolinamine] | 0 | 0 | - (0-19% control at 400 ppm) | 0 | 0 | + (20-89% control at 400 ppm) | +++ (90-100% control at 100 ppm) | - (0-19% control at 400 ppm) | + (20-89% control at 400 ppm) | + (20-89% control at 400 ppm) | 0 | 0 | + (20-89% control at 400 ppm) | - (0-19% control at 400 ppm) | 0 | 0 | – | – | – | –
2 | Fc1cccc2c(NCCc3c(Cl)cccc3Cl)ccnc12 [Example 118, N-[2-(2,6-dichlorophenyl)ethyl]-8-fluoro-4-quinolinamine] | – | 0 | - (0-19% control at 400 ppm) | 0 | – | - (0-19% control at 400 ppm) | - (0-19% control at 400 ppm) | - (0-19% control at 400 ppm) | - (0-19% control at 400 ppm) | - (0-19% control at 400 ppm) | 0 | – | + (20-89% control at 400 ppm) | - (0-19% control at 400 ppm) | 0 | – | – | – | – | –
3 | COc1cc(CCNc2ccnc3c(F)cccc23)cc(OC)c1 [Example 119, N-[2-(3,5-dimethoxyphenyl)ethyl]-8-fluoro-4-quinolinamine] | – | 0 | + (20-89% control at 400 ppm) | 0 | – | + (20-89% control at 400 ppm) | ++ (90-100% control at 400 ppm) | + (20-89% control at 400 ppm) | + (20-89% control at 400 ppm) | - (0-19% control at 400 ppm) | 0 | – | + (20-89% control at 400 ppm) | - (0-19% control at 400 ppm) | 0 | – | – | – | – | –
4 | c1ccc(C2CC2Nc2ccnc3ccccc23)cc1 (stereo not shown) [Example 120, N-(2-phenylcyclopropyl)-4-quinolinamine] | – | 0 | - (0-19% control at 400 ppm) | 0 | – | + (20-89% control at 400 ppm) | ++ (90-100% control at 400 ppm) | - (0-19% control at 400 ppm) | - (0-19% control at 400 ppm) | +++ (90-100% control at 100 ppm) | 0 | – | + (20-89% control at 400 ppm) | - (0-19% control at 400 ppm) | 0 | – | – | – | – | –
5 | CC(=O)N(CCc1ccc(C)cc1)c1ccnc2ccc(C)cc12 [Example 122, N-[2-(4-methylphenyl)ethyl]-N-(6-methyl-4-quinolinyl)acetamide] | – | 0 | - (0-19% control at 400 ppm) | 0 | – | + (20-89% control at 400 ppm) | ++ (90-100% control at 400 ppm) | - (0-19% control at 400 ppm) | - (0-19% control at 400 ppm) | - (0-19% control at 400 ppm) | 0 | – | ++ (90-100% control at 400 ppm) | - (0-19% control at 400 ppm) | 0 | – | 0 | 0 | 0 | 0
6 | Fc1cccc2c(NC3CC3c3ccccc3)ccnc12 (stereo not shown) [Example 123, 8-fluoro-N-(2-phenylcyclopropyl)-4-quinolinamine] | – | 0 | - (0-19% control at 400 ppm) | 0 | – | + (20-89% control at 400 ppm) | +++ (90-100% control at 100 ppm) | - (0-19% control at 400 ppm) | - (0-19% control at 400 ppm) | - (0-19% control at 400 ppm) | 0 | – | + (20-89% control at 400 ppm) | - (0-19% control at 400 ppm) | 0 | – | – | – | – | –
7 | CC(=O)N(CCc1ccc(Cl)cc1)c1ccnc2cc(Cl)ccc12 [Example 124, N-[2-(4-chlorophenyl)ethyl]-N-(7-chloro-4-quinolinyl)acetamide] | – | 0 | - (0-19% control at 400 ppm) | 0 | – | + (20-89% control at 400 ppm) | - (0-19% control at 400 ppm) | - (0-19% control at 400 ppm) | +++ (90-100% control at 100 ppm) | - (0-19% control at 400 ppm) | 0 | – | + (20-89% control at 400 ppm) | - (0-19% control at 400 ppm) | 0 | – | 0 | 0 | 0 | 0
8 | CC(=O)N(CCc1cccc(C(F)(F)F)c1)c1ccnc2cc(Cl)ccc12 [Example 126, N-(7-chloro-4-quinolinyl)-N-[2-[3-(trifluoromethyl)phenyl]ethyl]acetamide] | – | 0 | - (0-19% control at 400 ppm) | 0 | – | + (20-89% control at 400 ppm) | + (20-89% control at 400 ppm) | + (20-89% control at 400 ppm) | ++ (90-100% control at 400 ppm) | - (0-19% control at 400 ppm) | 0 | – | +++ (90-100% control at 100 ppm) | - (0-19% control at 400 ppm) | 0 | – | 0 | 0 | 0 | 0
